Experimental data from PubChem BioAssay (NCI).
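Method: 48-hour compound exposure of cells in 96-well plates, five concentrations, linear interpolation of endpoints. Abbreviation: GI50, concentration required for 50% inhibition of growth. TGI: concentration producing complete growth inhibition.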

Each compound was assayed on MDA-MB-468 breast (assay: growth of human tumour cells (NCI), 48 h).

Compound	GI50 [nM]	TGI [nM]
C=C1C(=O)OC2CC3(C)OC3C3OC3C3=CC(OC3=O)C12 (centres undefined)	1580	3280
CC(=O)OCC(=O)C1(O)C(C)CC2C3C=C(C)C4=Cc5c(cnn5-c5ccccc5)CC4(C)C3C(O)CC21C (centres undefined)	2030	4330
Cc1cc2c(C(C)C)c(O)c(O)c(C=O)c2c(O)c1-c1c(C)cc2c(C(C)C)c(O)c(O)c(C=O)c2c1O (tested in a mixture with another compound)	1010	3750
CCN(CC)c1ccc2nc3c4ccccc4c(=NC(=O)c4ccccc4-c4c5ccc(N(CC)CC)cc5[o+]c5cc(N(CC)CC)ccc45)cc-3oc2c1	1010	2430
O=C(Nc1ccc(S(=O)(=O)NC2CCCCCC2)cc1)C(c1ccccc1)S(=O)(=O)c1ccc(F)cc1 (centres undefined)	863	3230
COc1cnc2c(c1)C(=O)c1c-2n(CCCN2CCN(CCO)CC2)c(=O)c2cc([N+](=O)[O-])ccc12	2470	7540
COc1cc(/C=C/C(=O)c2ccc(Nc3nc(Nc4ccccc4)nc(Nc4ccc(Cl)cc4)n3)cc2)cc(OC)c1OC	11700	> 32500
C/C(=N\Nc1cccc(Cl)n1)c1ccccn1	764	2420
N#Cc1c(Oc2ccc(F)c(NC(=O)Cc3cccc(C(F)(F)F)c3)c2)ccc2nc(NC(=O)C3CC3)sc12	3980	> 100000
CCN1C(=O)N(CC)C2C1NN=c1s/c(=C\c3ccccc3)c(=O)n12 (centres undefined)	86.7	> 100000
COc1ccc(-n2sc(=O)n(Cc3ccc(COC(=O)C(C)c4ccc(CC(C)C)cc4)cc3)c2=O)cc1 (centres undefined)	925	2130
COc1ccc(NC(=O)O[C@H]2[C@H](O[C@H]3[C@@H](O)COC(O[C@H]4C[C@H]5[C@@H]6CC=C7C[C@@H](O)CC[C@]7(C)[C@H]6CC[C@]5(C)[C@H]4[C@H](C)C(=O)CCC(C)C)[C@@H]3OC(C)=O)OC[C@@H](O)[C@@H]2O)cc1 (some centres undefined)	< 10	630
CCCCCc1c(C)[nH]c(/C=c2\[nH]/c(=C3/C=c4ccccc4=N3)cc2OC)c1C	59.1	1630
C[C@@H]1CN2[C@H]3[C@@H]1CC[C@]31CCC(=O)O[C@]1(C)[C@@H]1CC[C@H]3CCC=C3[C@@H]12	> 70000	> 70000
O=[N+]([O-])c1ccc(-c2ccccc2)c([As](=O)(O)O)c1	11800	28100
COC(=O)Nc1nc2ccc(Sc3ccccc3)cc2[nH]1	165	1530
O=C(CC1(O)C(=O)Nc2c(Cl)ccc(Cl)c21)c1ccc(C2CC2)cc1 (centres undefined)	297	10200
N#CSCC(=O)c1ccc(Cl)cc1	2280	10400
CCNCCNc1cc(-c2cccc(C(F)(F)F)c2)c(C#N)c2nc3ccccc3n12	1340	2840
CCc1ccccc1-n1c(N)c(C#N)c(-c2ccc(OC)c(OC)c2)c(C#N)c1=O	37600	> 100000
CCCCCCC1N=C(N)N=C(N)N1c1ccc(Cl)cc1 (centres undefined)	1350	4720
COc1cccc(Nc2nccc(Nc3ccc4[nH]ncc4c3)n2)c1	1250	2770
COc1ccc(C2C3=C(COC3=O)N(CCO)c3cc4c(cc32)OCCO4)cc1OC (centres undefined)	786	5190
O=c1cc(-c2ccccc2Cl)[nH]c2cc3c(cc12)OCO3	13900	> 100000

Compound	GI50 [nM]	TGI [nM]
C=C(C)[C@@H]1CC[C@]2(C)[C@H](C=CC3=C4C[C@@](C)(CO)CC[C@]4(C)CC[C@]32C)[C@@]1(C)CCCN	1580	3200
CN(NC(=O)CC(=O)NN(C)C(=S)c1ccc(Cl)cc1)C(=S)c1ccc(Cl)cc1	23900	> 100000
CN(C)CCOc1nc2ccccc2c2c1-c1ccc(Cl)cc1C2=O	606	1970
Brc1ccc(Br)nn1	1140	2470
Oc1[nH]c2ccc(Cl)cc2c1/C=c1/ccc2c(c1)N=C(c1cc(F)cc(F)c1)N=2	3460	13200
CN1CCN(c2ccc3nc4c(nc3c2C(F)(F)F)C(=O)c2ncccc2C4=O)CC1	1060	2580
C[C@@H](Oc1cc(-c2cnn(C3CC4(CCCNC4)C3)c2)cnc1N)c1c(Cl)ccc(F)c1Cl (some centres undefined)	1090	2490
CC(C)N(C[C@H]1O[C@@H](n2cnc3c(N)ncnc32)[C@H](O)[C@@H]1O)C1CC(CCc2nc3ccc(C(C)(C)C)cc3[nH]2)C1 (some centres undefined)	18400	> 72600
CCOC(=O)C(Cc1ccc(OC)cc1)C(=O)OCC	4170	20600
Cc1cc2nc3c4ccccc4n(CCN(C)C)c3nc2cc1C	1320	3620
ClC1=C(Cl)C(Cl)=C(Cl)C1=Cc1ccc(Cl)cc1	251	869
CNCCOc1nc2c3cnccc3cc(-c3cc(OC)c(OC)c(OC)c3)c2c2ccncc12	27.8	106
C=C=[CH][Sn]([c]1ccccc1)([c]1ccccc1)[c]1ccccc1	1340	2660
CC[C@H](C)[C@H](NC(=O)C12CC(NC(C)=O)(C1)C2)C(=O)N(C)[C@H](C[C@@H](OC(C)=O)c1nc(C(=O)N[C@@H](Cc2ccccc2)C[C@H](C)C(=O)OC)cs1)C(C)C	58.4	> 9300
CON	> 100000	> 100000
CCOc1cc(/C=N\NC(=O)N/N=C/c2ccc(O)c(OCC)c2)ccc1O	1440	7270
CC(=O)N[C@@H](Cc1ccc(OP(=O)(O)O)cc1)C(=O)N[C@H]1CCC(=O)N2CCC[C@@H](C(=O)NCc3ccc(O)cc3)N2C1=O	> 25000	> 25000
O=C(NO)c1cnc(N2CCN(S(=O)(=O)c3ccc4ccccc4c3)CC2)nc1	74.3	6500
CCS/C(Nc1ccccc1)=C(\C#N)C(=O)N/N=C/c1ccc(Cl)cc1Cl	2600	9190
COc1ccc2c(c1)Oc1nc(N)c(C#N)c(N)c1C2Sc1ccc(C)cc1 (centres undefined)	1200	2600
N#CC[C@H](C1CCCC1)n1cc(-c2ncnc3[nH]ccc23)cn1	23200	78800
COc1cc(C2C(C#N)=C(N)Oc3cc4c(cc32)OCO4)cc2c1OCO2 (centres undefined)	112	836
CS[C@@]1(C(=O)Nc2ccc3[nH]nc(-c4ccc(OC(C)C)nc4)c3c2)CCN(CC(=O)N2CC=C(c3ccc(-c4ncn(C)n4)cc3)CC2)C1	> 100000	> 100000
